The record followed here is patent publication US20260265265A1, “NOVEL BENZIMIDAZOLONE DERIVATIVE COMPOUND AS AUTOTAXIN INHIBITOR” (LG CHEM, LTD., priority 2023, published 2026).

This experiment concerns the target T1, Recombinant Human ENPP-2/Autotaxin (Homo sapiens, UniProt Q13822).
T1 construct: purchased R&D systems 5255-EN
Kind of experiment: LysoPLD activity measurement (autotaxin enzyme inhibition, choline release, TOOS reagent). It counts as biochemical. As to conditions: LysoPLD inhibitory activity; substrate 14:0 LysoPC; absorbance at 555 nm. On the procedure: Such a measurement method is a method of measuring the amount of choline, which is a reaction product in an autotaxin enzyme reaction, using a TOOS reagent. Depending on the activity of the autotaxin inhibitor, the amount of choline produced as a reaction product varies, which affects the final absorbance.
After 30 min, 14:0 LysoPC of the substrate diluted to a concentration of 300 μM with the enzyme reaction buffer solution was dispensed into each well by 50 μL and allowed to stand at 37° C. for 90 minutes. At this time, negative control wells were dispensed with 1% DMSO, substrate, and autotaxin instead of the compound, and positive control wells were dispensed with 1% DMSO and substrate.

In the case of `O=C(O)c1cccc(C2(n3c(=O)n(-c4ccc(N5CC(O)C5)cc4)c4cc(Cl)ccc43)CC2)c1` [Example 159, 3-(1-(5-chloro-3-(4-(3-hydroxyazetidin-1-yl)phenyl)-2-oxo-2,3-dihydro-1H-benzo[d]imidazol-1-yl)cyclopropyl)benzoic acid], the IC50 (usually the concentration that inhibits the measured activity by half) was less than 10 nM. As to `CC(C)(c1cccc(C(=O)O)c1)n1c(=O)n(-c2ccc(N3CC(O)C3)cc2)c2cc(Cl)ccc21` [Example 154, 3-(2-(5-chloro-3-(4-(3-hydroxyazetidin-1-yl)phenyl)-2-oxo-2,3-dihydro-1H-benzo[d]imidazol-1-yl)propane-2-yl)benzoic acid], the IC50 was 10 to 100 nM. Turning to `CN(C)c1ccc(-n2c(=O)n(Cc3cccc(C(=O)O)c3)c3ncc(Cl)cc32)cc1` [Example 161, 3-((6-chloro-1-(4-(dimethylamino)phenyl)-2-oxo-1,2-dihydro-3H-imidazo[4,5-b]pyridin-3-yl)methyl)benzoic acid], the IC50 fell in the range of 100 to 1000 nM. Regarding `COC1CCN(C(=O)c2ccc(-n3c(=O)n(Cc4cccc(C(=O)O)c4)c4ccc(Cl)cc43)cc2)CC1` [Example 62, 3-((5-chloro-3-(4-(4-methoxypiperidine-1-carbonyl)phenyl)-2-oxo-2,3-dihydro-1H-benzo[d]imidazol-1-yl)methyl)benzoic acid], the IC50 was less than 10 nM. Consider `CN(C)C(=O)c1ccc(-n2c(=O)n(C3(c4cccc(C(=O)O)c4)CCC3)c3ccc(Cl)cc32)cc1` [Example 157, 3-(1-(5-chloro-3-(4-(dimethylcarbamoyl)phenyl)-2-oxo-2,3-dihydro-1H-benzo[d]imidazol-1-yl)cyclobutyl)benzoic acid], for which the IC50 is less than 10 nM. In the case of `CN(C)c1ccc(-n2c(=O)n(C3(c4cccc(C(=O)O)c4)CC3)c3ccc(C(F)(F)F)cc32)cc1` [Example 206, 3-(1-(3-(4-(dimethylamino)phenyl)-2-oxo-5-(trifluoromethyl)-2,3-dihydro-1H-benzo[d]imidazol-1-yl)cyclopropyl)benzoic acid], the IC50 lay within 10 to 100 nM. As to `O=C(O)c1cccc(Cn2c(=O)n(-c3ccc(C4CCOCC4)cc3)c3cc(Cl)ccc32)c1F` [Example 108, 3-((5-chloro-2-oxo-3-(4-(tetrahydro-2H-pyran-4-yl)phenyl)-2,3-dihydro-1H-benzo[d]imidazol-1-yl)methyl)-2-fluorobenzoic acid], the IC50 was in the range of 10 to 100 nM. Turning to `O=C(O)c1cccc(Cn2c(=O)n(-c3cnn(C4CCOCC4)c3)c3cc(Cl)ccc32)c1` [Example 86, 3-((5-chloro-2-oxo-3-(1-(tetrahydro-2H-pyran-4-yl)-1H-pyrazol-4-yl)-2,3-dihydro-1H-benzo[d]imidazol-1-yl)methyl)benzoic acid], the IC50 was 100 to 1000 nM. As for `O=C(O)c1cccc(Cn2c(=O)n(-c3ccc(N4CCCCC4=O)cc3)c3cc(Cl)ccc32)c1` [Example 28, 3-((5-chloro-2-oxo-3-(4-(2-oxopiperidin-1-yl)phenyl)-2,3-dihydro-1H-benzo[d]imidazol-1-yl)methyl)benzoic acid], the IC50 is 10 to 100 nM.

For the compound `O=C(O)c1cccc(C2(n3c(=O)n(-c4nc5ccccc5s4)c4cc(Cl)ccc43)CC2)c1F` [Example 144, 3-(1-(3-(benzo[d]thiazol-2-yl)-5-chloro-2-oxo-2,3-dihydro-1H-benzo[d]imidazol-1-yl)cyclopropyl)-2-fluorobenzoic acid], the half-maximal inhibitory concentration (IC50) was 10 to 100 nM. Turning to `O=C(O)c1cccc(Cn2c(=O)n(-c3ccc(C(=O)N4CCCCC4)cc3)c3cc(Cl)ccc32)c1` [Example 43, 3-((5-chloro-2-oxo-3-(4-(piperidine-1-carbonyl)phenyl)-2,3-dihydro-1H-benzo[d]imidazol-1-yl)methyl)benzoic acid], the IC50 was less than 10 nM. As for `O=C(O)c1cccc(C2(n3c(=O)n(-c4ccc(N5CCOCC5)cc4)c4cc(Cl)cnc43)CC2)c1` [Example 222, 3-(1-(6-chloro-1-(4-morpholinophenyl)-2-oxo-1,2-dihydro-3H-imidazo[4,5-b]pyridin-3-yl)cyclopropyl)benzoic acid], the IC50 is less than 10 nM. The value for `O=C(O)c1cccc(C2(n3c(=O)n(-c4ccc(N5CCCOCC5)cc4)c4cc(Cl)ccc43)CC2)c1` [Example 183, 3-(1-(3-(4-(1,4-oxazepan-4-yl)phenyl)-5-chloro-2-oxo-2,3-dihydro-1H-benzo[d]imidazol-1-yl)cyclopropyl)benzoic acid] was less than 10 nM. The value for `CCCn1cc(-c2ccc(-n3c(=O)n(C4(c5cccc(C(=O)O)c5)CC4)c4ccc(Cl)cc43)cc2)cn1` [Example 269, 3-(1-(5-chloro-2-oxo-3-(4-(1-propyl-1H-pyrazol-4-yl)phenyl)-2,3-dihydro-1H-benzo[d]imidazol-1-yl)cyclopropyl)benzoic acid] was less than 10 nM; that for `CCCc1ccc(-n2c(=O)n(C3(c4cccc(C(=O)O)c4)CC3)c3ccc(Cl)cc32)cc1` [Example 31, 3-(1-(5-chloro-2-oxo-3-(4-propylphenyl)-2,3-dihydro-1H-benzo[d]imidazol-1-yl)cyclopropyl)benzoic acid] was 10 to 100 nM. Consider `O=C(O)c1cccc(C2(n3c(=O)n(-c4ccc(C(=O)N5CC6(COC6)C5)cc4)c4cc(Cl)ccc43)CC2)c1` [Example 137, 3-(1-(3-(4-(2-oxa-6-azaspiro[3.3]heptane-6-carbonyl)phenyl)-5-chloro-2-oxo-2,3-dihydro-1H-benzo[d]imidazol-1-yl)cyclopropyl)benzoic acid], for which the IC50 is less than 10 nM. With `CC1(C)OCc2cc(-n3c(=O)n(C4(c5cccc(C(=O)O)c5)CC4)c4ccc(Cl)cc43)ccc21` [Example 251, 3-(1-(5-chloro-3-(1,1-dimethyl-1,3-dihydroisobenzofuran-5-yl)-2-oxo-2,3-dihydro-1H-benzo[d]imidazol-1-yl)cyclopropyl)benzoic acid], the IC50 was less than 10 nM. `CC1(C)CC=C(c2ccc(-n3c(=O)n(Cc4cccc(C(=O)O)c4F)c4ccc(Cl)cc43)cc2)CC1` [Example 112, 3-((5-chloro-3-(4′,4′-dimethyl-2′,3′,4′,5′-tetrahydro-[1,1′-biphenyl]-4-yl)-2-oxo-2,3-dihydro-1H-benzo[d]imidazol-1-yl)methyl)-2-fluorobenzoic acid]: the IC50 was 100 to 1000 nM. For the compound `O=C(O)c1cccc(C2(n3c(=O)n(-c4ccc(C(=O)N5CCC(F)(F)C5)cc4)c4cc(Cl)ccc43)CC2)c1` [Example 130, 3-(1-(5-chloro-3-(4-(3,3-difluoropyrrolidine-1-carbonyl)phenyl)-2-oxo-2,3-dihydro-1H-benzo[d]imidazol-1-yl)cyclopropyl)benzoic acid], the IC50 is less than 10 nM. Take `O=C(O)c1cc(Cn2c(=O)n(-c3ccc(N4CCOCC4)cc3)c3c(F)c(Cl)ccc32)ccc1F` [Example 48, 5-((5-chloro-4-fluoro-3-(4-morpholinophenyl)-2-oxo-2,3-dihydro-1H-benzo[d]imidazol-1-yl)methyl)-2-fluorobenzoic acid]: the IC50 is 10 to 100 nM. Turning to `CC(C)(c1cccc(C(=O)O)c1)n1c(=O)n(-c2ccc(C3CCOCC3)cc2)c2cc(Cl)ccc21` [Example 158, 3-(2-(5-chloro-2-oxo-3-(4-(tetrahydro-2H-pyran-4-yl)phenyl)-2,3-dihydro-1H-benzo[d]imidazol-1-yl)propan-2-yl)benzoic acid], the IC50 lay in the range of 10 to 100 nM. For the compound `O=C(O)c1cccc(Cn2c(=O)n(-c3ccc(C(=O)N4CCCC4)cc3)c3cc(Cl)ccc32)c1F` [Example 56, 3-((5-chloro-2-oxo-3-(4-(pyrrolidine-1-carbonyl)phenyl)-2,3-dihydro-1H-benzo[d]imidazol-1-yl)methyl)-2-fluorobenzoic acid], the IC50 was less than 10 nM. Turning to `O=C(O)c1cccc(Cn2c(=O)n(-c3ccc(C(=O)NCC(F)(F)F)cc3)c3cc(Cl)ccc32)c1` [Example 23, 3-((5-chloro-2-oxo-3-(4-((2,2,2-trifluoroethyl)carbamoyl)phenyl)-2,3-dihydro-1H-benzo[d]imidazol-1-yl)methyl)benzoic acid], the IC50 was in the range of 100 to 1000 nM.

Regarding `O=C(O)c1cccc(Cn2c(=O)n(-c3ccc(C(=O)N4CCCC4)cc3)c3cc(Cl)cnc32)c1` [Example 169, 3-((6-chloro-2-oxo-1-(4-(pyrrolidine-1-carbonyl)phenyl)-1,2-dihydro-3H-imidazo[4,5-b]pyridin-3-yl)methyl)benzoic acid], the IC50 was 10 to 100 nM. The value for `O=C(O)c1cccc(C2(n3c(=O)n(-c4ccc(N5CCOCC5)cc4)c4cc(OC(F)(F)F)ccc43)CC2)c1` [Example 209, 3-(1-(3-(4-morpholinophenyl)-2-oxo-5-(trifluoromethoxy)-2,3-dihydro-1H-benzo[d]imidazol-1-yl)cyclopropyl)benzoic acid] was 10 to 100 nM.

As to `O=C(O)c1ccc(F)c(Cn2c(=O)n(-c3ccccc3)c3cc(Cl)ccc32)c1` [Example 32, 3-((5-chloro-2-oxo-3-phenyl-2,3-dihydro-1H-benzo[d]imidazol-1-yl)methyl)-4-fluorobenzoic acid], the IC50 was in the range of 100 to 1000 nM. With `O=C(O)c1cccc(C2(n3c(=O)n(-c4ccc(Cn5cnc(C(F)(F)F)c5)cc4)c4cc(Cl)ccc43)CC2)c1` [Example 237, 3-(1-(5-chloro-2-oxo-3-(4-((4-(trifluoromethyl)-1H-imidazol-1-yl)methyl)phenyl)-2,3-dihydro-1H-benzo[d]imidazol-1-yl)cyclopropyl)benzoic acid], the 50% inhibitory concentration (IC50) was 10 to 100 nM. Consider `O=C(O)c1cc(F)cc(C2(n3c(=O)n(-c4ccc(C5CCOCC5)nc4)c4cc(Cl)ccc43)CC2)c1` [Example 262, 3-(1-(5-chloro-2-oxo-3-(6-(tetrahydro-2H-pyran-4-yl)pyridin-3-yl)-2,3-dihydro-1H-benzo[d]imidazol-1-yl)cyclopropyl)-5-fluorobenzoic acid], for which the IC50 fell in the range of 10 to 100 nM.
